Test results as given in PMC6152983, “An amine oxidase gene from mud crab, Scylla paramamosain, regulates the neurotransmitters serotonin and dopamine in vitro” (PLoS ONE, 2018).

Target: T1, SpAMO (Scylla paramamosain, UniProt A0A3G2KVP6)
T1 sequence (A0A3G2KVP6 2-506): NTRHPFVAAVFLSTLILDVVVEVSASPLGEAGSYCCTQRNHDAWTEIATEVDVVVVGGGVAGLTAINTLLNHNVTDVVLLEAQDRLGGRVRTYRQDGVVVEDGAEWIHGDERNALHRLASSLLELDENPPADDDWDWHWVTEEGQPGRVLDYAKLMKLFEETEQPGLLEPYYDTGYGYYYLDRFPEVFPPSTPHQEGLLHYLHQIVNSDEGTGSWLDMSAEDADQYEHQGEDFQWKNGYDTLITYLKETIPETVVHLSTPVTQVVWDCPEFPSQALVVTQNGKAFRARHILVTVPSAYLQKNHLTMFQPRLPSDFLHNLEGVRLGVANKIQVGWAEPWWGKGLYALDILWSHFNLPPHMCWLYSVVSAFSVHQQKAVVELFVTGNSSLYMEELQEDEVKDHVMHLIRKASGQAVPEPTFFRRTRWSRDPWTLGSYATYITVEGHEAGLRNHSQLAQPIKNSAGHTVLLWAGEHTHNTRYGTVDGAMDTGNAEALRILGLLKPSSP
Test: luminol/horseradish peroxidase chemiluminescence of H2O2
Type: biochemical
Conditions: glycine buffer pH 8.0, 37 °C; 50 μL of 1.5 mmol/L substrate

NCCc1ccc(O)c(O)c1 [dopamine]
luminol/horseradish peroxidase chemiluminescence of H2O2: oxidative deamination of 5-HT and DA by SpAMO was significantly stronger
